Here are results for 7 compounds from paper PMC3942006, “Ruthenium-Nitrosyl Complexes with Glycine, L-Alanine, L-Valine, L-Proline, D-Proline, L-Serine, L-Threonine, and L-Tyrosine: Synthesis, X-ray Diffraction Structures, Spectroscopic and Electrochemical Properties, and Antiproliferative Activity” (Inorganic Chemistry, 2014).

The subject of data set [1] is CH1 cells (human ovarian carcinoma). In words: MTT assay, antiproliferative activity in CH1 cells. The class given is cell-based. To be noted: for IC50: MTT assay, exposure time 96 h, means ± SD; for more active than the respective osmium analogue: CH1 cells. From the text:
(§1) CH1 cells (human ovarian carcinoma) were a generous gift from Lloyd R. Kelland, CRC Centre for Cancer Therapeutics, Institute of Cancer Research, Sutton, UK. SW480 (human adenocarcinoma of the colon) and A549 (human nonsmall cell lung cancer) cells were kindly provided by Brigitte Marian (Institute of Cancer Research, Department of Medicine I, Medical University of Vienna, Austria). All cell culture media and reagents were purchased from Sigma-Aldrich Austria and plastic ware from Starlab Germany. Cells were grown in 75 cm^2 culture flasks as adherent monolayer cultures in minimum essential medium (MEM) supplemented with 10% heat-inactivated fetal calf serum, 1 mM sodium pyruvate, 4 mM L-glutamine, and 1% nonessential amino acids (from 100× ready-to-use stock). Cultures were maintained at 310 K in humidified atmosphere containing 95% air and 5% CO2.
(§2) Cytotoxic effects of the test compounds were determined by means of a colorimetric microculture assay [MTT assay; MTT = 3-(4,5-dimethyl-2-thiazolyl)-2,5-diphenyl-2H-tetrazolium bromide] as described previously.[13] Cells were harvested from culture flasks by trypsinization and seeded by using a pipetting system (Biotek Precision XS Microplate Sample Processor) in densities of 1 × 10^3 (CH1), 2 × 10^3 (SW480), and 3 × 10^3 (A549) in 100 μL/well aliquots in 96-well microculture plates. For 24 h, cells were allowed to settle and resume proliferation. […] After 96 h of drug exposure, the medium was replaced with 100 μL/well of a 1:7 MTT/RPMI 1640 mixture (MTT solution, 5 mg/mL of MTT reagent in phosphate-buffered saline; RPMI 1640 medium, supplemented with 10% heat-inactivated fetal bovine serum and 4 mM L-glutamine), and plates were incubated for further 4 h at 310 K. Subsequently, the solution was removed from all wells, and the formazan crystals formed by viable cells were dissolved in 150 μL of DMSO per well. Optical densities at 550 nm were measured with a microplate reader (Biotek ELx808) by using a reference wavelength of 690 nm to correct for unspecific absorption. The quantity of viable cells was expressed relative to untreated controls, and 50% inhibitory concentrations (IC50) were calculated from concentration-effect curves by interpolation. Evaluation is based on means from three independent experiments.
(Tetrazolium dyes change colour on reduction, which living cells bring about.)

Data set [2] relates to A549 (human nonsmall cell lung cancer) cells. In words: MTT assay, antiproliferative activity in A549 cells. The class given is cell-based. To be noted: exposure time 96 h, means ± SD.
Excerpt: as §1, §2

Data set [3] concerns SW480 (human adenocarcinoma of the colon) cells. In words: MTT assay, antiproliferative activity in SW480 cells. Type of data set: cell-based. To be noted: for IC50: MTT assay, exposure time 96 h, means ± SD; for more active than the respective osmium analogue: SW480 cells.
Excerpt: as §1, §2

The nature of data set [4]: log D7.4 by shake-flask method, n-octanol/buffered aqueous solution. To be noted: for log D7.4: n-octanol/0.02 M HEPES pH 7.4, T = 298.0 K; for log D7.4 in the presence of 0.1 M KCl: n-octanol/0.02 M HEPES pH 7.4, 0.1 M KCl, T = 298.0 K. Type of data set: physicochemical. On the procedure:
^1H NMR spectra were recorded on a Bruker Avance III instrument (Ultrashiled Magnet) at 500.13 MHz at room temperature. DMSO-d6 was used as a solvent. Standard pulse programs were applied. ^1H chemical shifts were measured relative to the residual solvent peaks. […] Complex concentration was 1.0 mM. Watergate water suppression program and 4,4-dimethyl-4-silapentane-1-sulfonic acid (DSS) internal standard were used. ATR-IR spectra were measured on a Bruker Vertex spectrometer. D7.4 values were determined by the traditional shake-flask method in n-octanol/buffered aqueous solution at pH 7.4 (N-(2-hydroxyethyl)piperazine-N′-ethanesulfonic acid (HEPES) buffer) and 298.0 ± 0.2 K, as described previously.[25] In the case of the complexes of L-Ala (2) and L-Val (3) the D7.4 values were determined in the presence of 0.1 M KCl as well. Two parallel experiments were performed for each sample. The complexes were dissolved at 0.3 mM in the n-octanol presaturated aqueous solution of the buffer (0.02 M). The aqueous solutions and n-octanol with 1:1 phase ratio were gently mixed with 360° vertical rotation for 3 h to avoid emulsion formation, and the mixtures were centrifuged at 5000 rpm for 3 min by a temperature-controlled centrifuge at 298 K. After separation, UV spectra of the complexes in the aqueous phase were compared to those of the original aqueous solutions, and D7.4 values were calculated as the mean of [absorbance (original solution)/absorbance (aqueous phase after separation) – 1] obtained in the region of λ ≈ (250–290 nm). Circular dichroism (CD) and UV–vis spectra under physiological conditions (0.02 M phosphate buffer, pH 7.40 with 0.1 M KCl) were recorded on a Jasco J-815 spectrometer in an optical cell of 2 cm path length (l) in the wavelength range from 220 to 600 nm. The analytical concentration for the CD measurement of the complexes was 400 μM in aqueous solution. CD data are given as the differences in molar absorptivities between left and right circularly polarized light, based on the concentration of the […] (Δε = ΔA/l/ccomplex). The concentrations for the UV–vis measurements amounted to 403 (1), 401 (4), 401 (5), 400 (8), 399 (3), 401 (2), 403 (7), and 401 (6) μM.
The log D7.4 values of the complexes were determined by the traditional shake-flask method in n-octanol/buffered aqueous solution at pH 7.4 by analysis of the UV–vis spectra of the aqueous phases before and after separation (Supporting Information, Figure S10 and Table 5).

Data set [5] can be described thus: Co-incubation with sodium ascorbate followed by ESI mass spectrometry. To be noted: 4 equiv sodium ascorbate (200 μM), 310 K, over 24 h. Type of data set: physicochemical. On the procedure: (§3) The stability of four compounds, namely 1, 4, 5, and 8, in aqueous solution and in the presence of 4 equiv of sodium ascorbate was investigated using an AmaZon SL ESI ion trap mass spectrometer (Bruker Daltonics GmbH, Bremen, Germany). For this purpose, the compounds were diluted from 400 μM stock solution (1% DMSO) to 50 μM in water and in the presence of 200 μM sodium ascorbate. The solutions were incubated at 310 K in the dark, and samples were measured after 0.5, 1, 2, 6, and 24 h after a second dilution step to 5 μM of the metal compound. The samples were introduced by direct infusion into the mass spectrometer at 280 μL/h, and mass spectra were recorded over 0.5 min and averaged. Typical experimental conditions were as follows: high voltage (HV) capillary ±4.5 kV, dry temp 180 °C, nebulizer 8 psi, dry gas 6 L/min, radio frequency (RF) level 77%, trap drive 57.6, average accumulation time 25 ms (negative ion mode) and 120 μs (positive ion mode). […]
(§4) The aqueous stability of compounds 1, 4, 5, and 8 was also confirmed by ESI mass spectrometry. […] Dissolution of 1 in D2O leads to the change of the labile −NH2 to −ND2, and the resulting compound [RuCl3(N,N-d2-Gly−H)(NO)] ^– (m/z 314.74 compared to m/z 312.72 of 1) was analyzed. […] Note that related ruthenium-nitrosyl complexes with azole heterocycles reacted quantitatively with sodium ascorbate within several hours.[15]

Data set [6] can be described thus: Aqueous stability by ESI mass spectrometry. Type of data set: physicochemical. The note with it: 50 μM in water, 310 K, over 24 h. The method, then:
as §3, §4

Data set [7] is described as follows: Hydrolytic stability by 1H NMR spectroscopy. Type of data set: physicochemical. To be noted: 10% D2O/H2O, pH = 5.86, compared with pH 7.4 buffer. The method, then:
^1H NMR spectra were recorded on a Bruker Avance III instrument (Ultrashiled Magnet) at 500.13 MHz at room temperature. DMSO-d6 was used as a solvent. Standard pulse programs were applied. ^1H chemical shifts were measured relative to the residual solvent peaks. […] Complex concentration was 1.0 mM. Watergate water suppression program and 4,4-dimethyl-4-silapentane-1-sulfonic acid (DSS) internal standard were used. ATR-IR spectra were measured on a Bruker Vertex spectrometer. D7.4 values were determined by the traditional shake-flask method in n-octanol/buffered aqueous solution at pH 7.4 (N-(2-hydroxyethyl)piperazine-N′-ethanesulfonic acid (HEPES) buffer) and 298.0 ± 0.2 K, as described previously.[25] In the case of the complexes of L-Ala (2) and L-Val (3) the D7.4 values were determined in the presence of 0.1 M KCl as well. […] The aqueous solutions and n-octanol with 1:1 phase ratio were gently mixed with 360° vertical rotation for 3 h to avoid emulsion formation, and the mixtures were centrifuged at 5000 rpm for 3 min by a temperature-controlled centrifuge at 298 K. After separation, UV spectra of the complexes in the aqueous phase were compared to those of the original aqueous solutions, and D7.4 values were calculated as the mean of [absorbance (original solution)/absorbance (aqueous phase after separation) – 1] obtained in the region of λ ≈ (250–290 nm). […]

The nature of data set [8]: Stability in aqueous solution by UV-vis spectroscopy. The note with it: pH 7.40, 0.02 M HEPES, 0.25 mM, 298.0 K, in the presence of 0.1 M KCl or in its absence. The class given is physicochemical.

For the compound `CCCC[N+](CCCC)(CCCC)CCCC.O=[N][Ru-2]1([Cl])([Cl])([Cl])[NH2+][C@@H](CO)C(=O)[O]1` [complex 6, (nBu4N)[RuCl3(L-Ser–H)(NO)]], the IC50 is 13 ± 2 µM in data set [1], more than 320 µM in data set [2] and 63 ± 10 µM in data set [3]. In addition, the “log D7.4” value in data set [4] is on record as “–1.77 ± 0.12”.

Regarding (nBu4N)[RuCl3(L-Pro–H)(NO)] [complex 4], the “more active than the respective osmium analogue” value was 5.7 fold in data set [1] and 4.4 fold in data set [3].

With (nBu4N)[RuCl3(D-Pro–H)(NO)] [complex 5], the figures for the “more active than the respective osmium analogue” value in data set [1] and in data set [3] were 11 fold and 14 fold, respectively.

For the compound (nBu4N)[RuCl3(L-Val–H)(NO)] [complex 3], the IC50 is 27 ± 3 µM in data set [1], more than 320 µM in data set [2] and 53 ± 2 µM in data set [3]. Moreover, the “log D7.4 in the presence of 0.1 M KCl” value in data set [4] is recorded as “–1.31 ± 0.07”. The “log D7.4” value in data set [4] is listed as “–1.13 ± 0.02”.

As for `CCCC[N+](CCCC)(CCCC)CCCC.C[C@@H](O)[C@@H]1[NH2+][Ru-2]([Cl])([Cl])([Cl])([N]=O)[O]C1=O` [complex 7, (nBu4N)[RuCl3(L-Thr–H)(NO)]], the IC50 was 23 ± 2 µM in data set [1], more than 320 µM in data set [2] and 71 ± 15 µM in data set [3]. Further, in data set [4], the “log D7.4” value is listed as “–1.75 ± 0.02”.

As for `CCCC[N+](CCCC)(CCCC)CCCC.C[C@@H]1[NH2+][Ru-2]([Cl])([Cl])([Cl])([N]=O)[O]C1=O` [complex 2, (nBu4N)[RuCl3(L-Ala–H)(NO)]], the figures for the IC50 in data set [1], in data set [2] and in data set [3] were 12 ± 2 µM, more than 320 µM and 47 ± 3 µM, respectively. Also, the “log D7.4 in the presence of 0.1 M KCl” value in data set [4] is reported as “–1.47 ± 0.11”. Moreover, in data set [4], the “log D7.4” value is “–1.63 ± 0.08”.

Take `CCCC[N+](CCCC)(CCCC)CCCC.O=[N][Ru-2]1([Cl])([Cl])([Cl])[NH2+][C@@H](Cc2ccc(O)cc2)C(=O)[O]1` [complex 8, (nBu4N)[RuCl3(L-Tyr–H)(NO)]]: the IC50 in data set [1] is 17 ± 3 µM; in data set [2], more than 320 µM; in data set [3], 38 ± 12 µM. Further, the “ligand release on incubation with sodium ascorbate” value in data set [5] was “did not induce ligand release”. The “aqueous stability, species in negative ion mode ESI mass spectra” value in data set [6] was “[RuCl3(AA–H)NO]^− as the major species”. Further, the “hydrolytic stability: 1H NMR in nonbuffered medium” value in data set [7] is given as “showed the same NMR spectra”. In addition, the “hydrolysis over 24 h (absorbance at 250 nm)” value in data set [8] is recorded as “negligible”.

The IC50 is the concentration that gives 50% inhibition. Lower therefore signals greater potency in that assay.
